Data reported in PMC5508548 (Bioorganic & medicinal chemistry letters, 2017).
Each block holds one compound with its values, some of them ahead of it.

Assays:
In vitro clearance, rat = type: in vitro ADME; details: for CLHEP, rat: in vitro predicted, well-stirred equation without fuplasma/fumic terms; for CLHEP, rat / CLint scaled: rat; for CLint scaled: liver microsomes
[1] = In vitro clearance, human; type: in vitro ADME; details: for CLHEP, human: in vitro predicted; for CLint scaled: liver microsomes
CYP450s (panel) = experiment: CYP450 inhibition profile; type: in vitro ADME
[2] = IV pharmacokinetics in SD rat; type: in vivo; details: Sprague-Dawley, plasma
cyno M2 = experiment: Muscarinic subtype selectivity, cyno M2; type: cell-based, cynomolgus monkey; details: data not shown
cyno M4 = cyno M4 (Macaca fascicularis, UniProt G7PQB4); experiment: ACh CRC fold-shift Ca2+ mobilization and ACh competition binding; type: cell-based, cynomolgus monkey; details: operational model cooperativity; n=3–4
dog M2 = experiment: Muscarinic subtype selectivity, dog M2; type: cell-based; details: data not shown
[3] = test system: L-DOPA-induced dyskinesia; details: NHPs, 10 mg/kg IV; cited from earlier work
[4] = In vitro metabolite identification in cryopreserved hepatocytes; type: in vitro ADME, rat, dog, cynomolgus monkey, human
TA98 and TA100 strains = experiment: Mini-Ames assay; details: TA98 and TA100 strains ± S9
[5] = IV and PO pharmacokinetics in cynomolgus monkey; type: in vivo
CYP1A2, CYP2B6, CYP3A4 = experiment: CYP induction in cryopreserved human hepatocytes; type: in vitro ADME; details: human
CYP 1A2/2B6/3A4 = experiment: CYP induction in cryopreserved human hepatocytes; type: in vitro ADME; details: 48 hr incubation, enzyme activity readout
[6] = IV and PO pharmacokinetics in dog; type: in vivo
[7] = Reactive metabolism/bioactivation; type: in vitro ADME; details: human hepatic microsomes
human M1-3,5 = experiment: Muscarinic subtype selectivity, human M1-3,5; type: cell-based; details: read-out: EC50 at human M1-3,5
[8] = Oral pharmacokinetics in rat; type: in vivo
[9] = test system: L-DOPA-induced dyskinesia; details: PD-LID mice and NHPs; cited from earlier work
GABAA receptor = experiment: GABAA functional assay; type: biochemical; details: at 10 μM
rat M1-3,5 = experiment: Muscarinic subtype selectivity, rat M1-3,5; type: cell-based; details: read-out: EC50 at rat M1-3,5
CYP450 = experiment: Human CYP450 phenotyping; type: in vitro ADME

- CLHEP, rat (In vitro clearance, rat): 3.59 L/h/kg
- CLint scaled (In vitro clearance, rat): 24.9 L/h/kg
- CLHEP, human [1]: 0.912 L/h/kg
- CLint scaled [1]: 1.21 L/h/kg
- IC50 (CYP450s (panel)): < 10 µM
- clearance [2]: 0.54 L/h/kg
SMILES: Cc1nnc2sc(C(=O)NCc3ccc(-c4ccncc4)cc3)c(N)c2c1C [8f]

- CLHEP, rat (In vitro clearance, rat): 1.89 L/h/kg
- CLint scaled (In vitro clearance, rat): 3.43 L/h/kg
- CLHEP, human [1]: 1.07 L/h/kg
- CLint scaled [1]: 1.18 L/h/kg
- clearance [2]: 0.216 L/h/kg
SMILES: Cc1nnc2sc(C(=O)NCc3ccc(-c4ccnc(F)c4)cc3)c(N)c2c1C [8k]

- CLHEP, rat (In vitro clearance, rat): 2.26 L/h/kg
- CLint scaled (In vitro clearance, rat): 4.9 L/h/kg
- CLHEP, human [1]: 1.03 L/h/kg
- CLint scaled [1]: 1.21 L/h/kg
- clearance [2]: 0.102 L/h/kg
SMILES: Cc1nnc2sc(C(=O)NCc3ccc(-c4ccc(F)nc4)cc3)c(N)c2c1C [8m]

SMILES: Cc1nnc2sc(C(=O)NCc3ccc(-c4cccnc4F)cc3)c(N)c2c1C [8p, 5-amino-N-(4-(2-fluoropyridine-3-yl)benzyl)-3,4-dimethylthieno[2,3-c] pyridazine-6-carboxamide]
- activity at cyno M2 (cyno M2): inactive
- α at cyno M4 (cyno M4): 28.2
- β at cyno M4 (cyno M4): 2.5
- activity at dog M2 (dog M2): inactive
- dyskinesia scores and involuntary movements [3]: significantly reduces dyskinesia scores and involuntary movements
- human unique metabolites ([4]; cryopreserved hepatocytes, multiple species): no evidence for human unique metabolites
- turnover in cryopreserved hepatocytes ([4]; rat, dog, cynomolgus monkey, human hepatocytes): low turnover
- mini-Ames mutagenicity (TA98 and TA100 strains): negative
- CLHEP, rat (In vitro clearance, rat): 2.76 L/h/kg
- predicted rat CLhep, revised prediction method (In vitro clearance, rat; inclusion of binding terms in the well-stirred model): 0.0294 L/h/kg
- CLint scaled (In vitro clearance, rat): 8.04 L/h/kg
- CLHEP, human [1]: 0.888 L/h/kg
- CLint scaled [1]: 1.15 L/h/kg
- oral bioavailability ([5]; 10 mg/kg solution dose of HCl salt): 4.7 %F
- clearance ([5]; plasma, iv): 0.558 L/h/kg
- EC50 at 48 h (CYP1A2, CYP2B6, CYP3A4): > 50 µM
- CYP 1A2/2B6/3A4 induction Emaxs (CYP 1A2/2B6/3A4): < 2
- oral bioavailability ([6]; 3 mg/kg suspension dose of the HCl salt): 47 %F
- clearance ([6]; plasma, iv): 0.33 L/h/kg
- GSH conjugates [7]: no significant levels of GSH conjugates
- EC50 (human M1-3,5): > 30 µM
- oral bioavailability ([8]; 10 mg/kg solution dose): 61 % F
- oral bioavailability ([8]; HCl salt of 8p dosed as a suspension): 54 %F
- deficits in synaptic plasticity and behavior [9]: ameliorates deficits in synaptic plasticity and behavior
- GABAA functional assay activity (GABAA receptor): no activity
- IC50 (CYP450s (panel)): ≥ 11 µM
- EC50 (rat M1-3,5): > 30 µM
- clearance [2]: 0.096 L/h/kg
- CYPs contributing to metabolism (CYP450): 3A4 (predominant), 2D6, 2C19, 2C9 and 1A2
